# Reference: patent US4438136A, “Prostaglandins” (National Research Development Corporation, priority 1979, dated 1984)
# What was measured:
# Human Platelets [1] = molecular target: T1, Human Platelets (Homo sapiens, UniProt P21731); experiment: Human Platelet System: antagonism of platelet aggregation induced by 11,9-(epoxymethano) PGH2; type: cell-based; settings: for Kb: vs 11,9-epoxymethano PGH2 (1×10^-7 to 5×10^-7 M), compound added 5 minutes before, Gaddum-Schild, read-out: AFFINITY CONSTANTS (KB) Human Platelets (converted); for inhibition of aggregatory activity of 11,9-(epoxymethano) PGH2 / antagonism in platelet test: human platelets in vitro, in words
# T1 construct: Platelet-rich plasma is obtained from fresh, citrated human blood; endogenous in cells; host or cells: human platelets (platelet-rich plasma from citrated blood)
# T1 sequence (P21731 1-343): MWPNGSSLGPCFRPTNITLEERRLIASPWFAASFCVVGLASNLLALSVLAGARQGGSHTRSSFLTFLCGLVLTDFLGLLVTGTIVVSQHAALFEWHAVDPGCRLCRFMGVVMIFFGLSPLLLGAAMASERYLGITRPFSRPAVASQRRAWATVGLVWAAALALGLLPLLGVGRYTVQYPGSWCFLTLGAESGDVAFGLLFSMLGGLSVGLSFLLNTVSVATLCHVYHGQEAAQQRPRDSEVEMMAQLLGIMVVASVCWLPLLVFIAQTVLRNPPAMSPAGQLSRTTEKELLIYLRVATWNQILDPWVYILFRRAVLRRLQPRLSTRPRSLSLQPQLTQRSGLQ
# Excerpt: (§1) It is believed that such inhibition is the result of the compounds being thromboxane antagonists and the activity of the compounds is for convenience hereinafter discussed in these terms. […] The related compounds described and claimed in our copending application Ser. No. 431,554 filed Sept. […] Structural features which tend to endow these compounds with a more pure antagonist form of activity are described in that application. It has been found, however, that the compounds of the present invention generally show little tendency to deviate from pure antagonist activity. Activity has also been observed on compounds according to the present invention on guinea pigs tracheal muscle.
# (§2) Various of the compounds described in Examples 1 to 3 are tested for biological activity in the human platelet and rabbit aorta systems.
# Platelet-rich plasma is obtained from fresh, citrated human blood. Addition of the 11,9-epoxymethano analogue of PGH2 (1×10^-7 to 5×10^-7 M) causes immediate aggregation recorded as an increase in light transmission (600 nm). In a second experiment the individual compounds are added 5 minutes previously to addition of the PGH2 analogue. The dose of the PGH2 analogue added is then increased to a level which gives a similar response to that obtained in the absence of antogonist. The affinity constant, KB, for the compound is calculated according to the Gaddum-Schild Equation (based on Law of Mass Action).
# (§3) [B]=molar concentration of compound
# Rabbit Aorta = molecular target: T2, Rabbit Aorta (Oryctolagus cuniculus, UniProt Q6WQI8); experiment: Rabbit Aorta System: antagonism of contraction of aorta strips induced by 11,9-(epoxymethano) PGH2; type: cell-based; settings: for Kb: read-out: AFFINITY CONSTANTS (KB) Rabbit Aorta (converted); for antagonist/agonist character in rabbit aorta strip test: in words
# T2 construct: contraction by 11,9-(epoxymethano)PGH2 (U-46619)
# T2 sequence (Q6WQI8 1-233): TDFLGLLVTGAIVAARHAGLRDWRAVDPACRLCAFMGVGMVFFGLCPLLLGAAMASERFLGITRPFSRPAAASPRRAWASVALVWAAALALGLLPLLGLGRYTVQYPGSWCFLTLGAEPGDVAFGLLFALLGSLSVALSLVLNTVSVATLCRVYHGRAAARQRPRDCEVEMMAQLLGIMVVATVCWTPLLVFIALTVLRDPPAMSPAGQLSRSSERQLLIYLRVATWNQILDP
# Excerpt: as §1, §2, §3
# Spiral strips of thoracic aorta are suspended in Kreb's-Henseleit solution and aerated with 95% O2 /5% CO2 at 37° C. Tension changes are recorded with a Grass FTO3 force transducer. Initially, cumulative dose response curves to 11,9-(epoxymethano) PGH2 (2×10^-9, 1×10^-8, 5×10^-8 and 2.5×10^-7 M) are obtained. In a second experiment the individual compounds are added 30 mins previous to the addition of the series of agonist doses. Affinity constants are calculated as above.
# Human Platelets [2] = experiment: Antagonism of ADP aggregatory action on platelets; type: cell-based
# platelet = experiment: Block of aggregatory action of arachidonic acid on platelets; type: cell-based, human; settings: in words
# α-adrenoceptors = experiment: Block of contractile action of noradrenaline (α-adrenoceptors); type: cell-based, rabbit; settings: in words
# [3] = vs 11,9-(epoxymethano) PGH2, compound added 30 mins before, Gaddum-Schild
Kb (Human Platelets [1]) [µM],Kb (Rabbit Aorta; [3]) [µM],Structure (SMILES),also measured
10,,CN(C)c1ccc(C(=O)NN=C[C@H]2[C@@H]3CC[C@@H](C3)[C@@H]2C/C=C\CCCC(=O)O)cc1 (relative stereo),AFFINITY CONSTANTS (KB) Rabbit Aorta (Rabbit Aorta; [3]): < 2.5e-05 L/mol
,5,COc1ccc(C(=O)NN=C[C@H]2[C@@H]3CC[C@@H](C3)[C@@H]2C/C=C\CCCC(=O)O)cc1 (relative stereo),
,1.49,O=C(O)CCC/C=C\C[C@H]1[C@H]2CC[C@H](C2)[C@@H]1C=NNC(=O)Cc1ccccc1 (relative stereo),
1.39,0.256,O=C(O)CCC/C=C\C[C@H]1[C@H]2CC[C@H](C2)[C@@H]1C=NNC(=O)C(c1ccccc1)c1ccccc1 (relative stereo),"Kb (Human Platelets [2]; antagonism of ADP, table head gives liters/mole, 5 min): 8.33 µM; antagonism of ADP (Human Platelets [2]; in words): Slight antagonism of ADP"
0.5,1.52,O=C(O)CCC/C=C\C[C@H]1[C@H]2CC[C@H](C2)[C@@H]1C=NNC(=O)CC(c1ccccc1)c1ccccc1 (relative stereo),
19.2,2.7,O=C(O)CCC/C=C\C[C@H]1[C@H]2CC[C@H](C2)[C@@H]1C=NNC(=O)COc1ccccc1 (relative stereo),
1.45,1.2,O=C(O)CCCCCC[C@H]1[C@H]2CC[C@H](C2)[C@@H]1C=NNC(=O)Nc1ccccc1 (relative stereo),
,,"O=C(O)CCC/C=C\C[C@H]1[C@H]2CC[C@H](C2)[C@@H]1C=NNC(=O)c1ccc(F)cc1 (relative stereo) [Example 1, 5-endo-(6'-Caboxyhex-2'Z-enyl)-6-exo-(N-p-fluorobenzoylhydrazonomethyl)-bicyclo[2,2,1]heptane]","block of aggregatory action of arachidonic acid (platelet): block the aggregatory action of archidonic acid; inhibition of aggregatory activity of 11,9-(epoxymethano) PGH2 / antagonism in platelet test (Human Platelets [1]): antagonists in the platelet test; antagonist/agonist character in rabbit aorta strip test (Rabbit Aorta): pure antagonists in the rabbit aorta strip test; block of contractile action of noradrenaline (α-adrenoceptors): do not block the contractile action of noradrenaline"
,,"O=C(O)CCC/C=C\C[C@H]1[C@H]2CC[C@H](C2)[C@@H]1C=NNC(=O)Nc1ccccc1 (relative stereo) [Example 3, 5-endo-(6'-carboxyhex-2'Z-enyl)-6-exo-[N-(phenylcarbamoyl)-hydrazonomethyl]-bicyclo[2,2,1]heptane]","block of aggregatory action of arachidonic acid (platelet): block the aggregatory action of archidonic acid; inhibition of aggregatory activity of 11,9-(epoxymethano) PGH2 / antagonism in platelet test (Human Platelets [1]): antagonists in the platelet test; antagonist/agonist character in rabbit aorta strip test (Rabbit Aorta): pure antagonists in the rabbit aorta strip test; block of contractile action of noradrenaline (α-adrenoceptors): do not block the contractile action of noradrenaline"
4.76,1.28,O=C(O)CCC/C=C\C[C@H]1[C@H]2CC[C@H](C2)[C@@H]1C=NNC(=O)c1ccc(F)cc1 (relative stereo) [drawing 24],
1.43,0.769,O=C(O)CCC/C=C\C[C@H]1[C@H]2CC[C@H](C2)[C@@H]1C=NNC(=O)Nc1ccccc1 (relative stereo) [drawing 31],
